Series [1] is described as follows: in vitro. Particulars: human, cells or culture medium, bradykinin present in media. It counts as in vitro ADME.
Series [2] is described as follows: in vitro. It counts as in vitro ADME. The conditions noted are these: human, cells or culture medium, bradykinin remaining in media.

No end group written: not given here.

In the case of RPPGFSPFR [bradykinin], in the series “in vitro [1]”, the amount remaining (as a rule, what is left of the initial amount, in per cent) at 0.5 h, 500 pg/ml was determined as 73 ± 3% and the amount remaining at 1 h, 500 pg/ml was 52 ± 3%. Besides, in “in vitro [2]”, the fraction remaining at 0.5 h, 500 pg/ml is 51 ± 5%; the amount remaining at 1 h, 500 pg/ml stood at 15 ± 3%; the fraction remaining at 1.5 h, 500 pg/ml was 9 ± 3%.

The values are drawn from paper PMC2713788 (Experimental eye research, 2009).
